Literature values in patent US11304902B2, “Pharmaceutical compositions, preparation and uses thereof” (CURADIGM SAS, priority 2014, dated 2022).

Tests used:
Conditions in all cases: human CYP enzyme
CYP1A1 = target: T1, CYP1A1 (Homo sapiens, UniProt P04798)
T1 sequence (P04798 1-512): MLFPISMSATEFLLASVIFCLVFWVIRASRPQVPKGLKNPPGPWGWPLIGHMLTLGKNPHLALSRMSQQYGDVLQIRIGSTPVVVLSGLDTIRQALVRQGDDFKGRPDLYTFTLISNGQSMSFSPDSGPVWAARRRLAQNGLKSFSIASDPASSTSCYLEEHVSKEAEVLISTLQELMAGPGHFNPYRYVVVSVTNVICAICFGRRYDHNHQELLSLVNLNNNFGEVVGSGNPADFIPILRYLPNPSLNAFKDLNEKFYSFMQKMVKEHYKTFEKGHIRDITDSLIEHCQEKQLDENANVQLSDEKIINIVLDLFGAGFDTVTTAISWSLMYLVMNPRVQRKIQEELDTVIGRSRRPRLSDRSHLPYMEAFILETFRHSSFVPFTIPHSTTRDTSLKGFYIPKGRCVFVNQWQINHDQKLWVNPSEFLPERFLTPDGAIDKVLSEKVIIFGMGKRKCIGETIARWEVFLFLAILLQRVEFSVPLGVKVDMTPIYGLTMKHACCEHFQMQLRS

CYP1A2 = target: T2, CYP1A2 (Homo sapiens, UniProt P05177)
T2 sequence (P05177 1-516): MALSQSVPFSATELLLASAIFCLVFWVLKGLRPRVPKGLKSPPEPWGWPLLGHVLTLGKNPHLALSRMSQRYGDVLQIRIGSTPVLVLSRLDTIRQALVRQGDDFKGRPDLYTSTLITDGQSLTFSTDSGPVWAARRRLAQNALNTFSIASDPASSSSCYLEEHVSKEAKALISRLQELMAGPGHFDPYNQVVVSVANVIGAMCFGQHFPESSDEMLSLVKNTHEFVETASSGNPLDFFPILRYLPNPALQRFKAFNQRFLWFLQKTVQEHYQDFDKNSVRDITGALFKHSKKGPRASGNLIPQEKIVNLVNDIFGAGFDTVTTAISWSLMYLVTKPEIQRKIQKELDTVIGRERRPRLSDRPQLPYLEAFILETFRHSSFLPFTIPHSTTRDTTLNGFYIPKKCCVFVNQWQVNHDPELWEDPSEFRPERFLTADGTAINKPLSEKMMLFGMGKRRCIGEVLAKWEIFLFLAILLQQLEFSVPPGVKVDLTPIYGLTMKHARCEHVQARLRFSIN

CYP2C8 = target: T3, CYP2C8 (Homo sapiens, UniProt P10632)
T3 sequence (P10632 1-490): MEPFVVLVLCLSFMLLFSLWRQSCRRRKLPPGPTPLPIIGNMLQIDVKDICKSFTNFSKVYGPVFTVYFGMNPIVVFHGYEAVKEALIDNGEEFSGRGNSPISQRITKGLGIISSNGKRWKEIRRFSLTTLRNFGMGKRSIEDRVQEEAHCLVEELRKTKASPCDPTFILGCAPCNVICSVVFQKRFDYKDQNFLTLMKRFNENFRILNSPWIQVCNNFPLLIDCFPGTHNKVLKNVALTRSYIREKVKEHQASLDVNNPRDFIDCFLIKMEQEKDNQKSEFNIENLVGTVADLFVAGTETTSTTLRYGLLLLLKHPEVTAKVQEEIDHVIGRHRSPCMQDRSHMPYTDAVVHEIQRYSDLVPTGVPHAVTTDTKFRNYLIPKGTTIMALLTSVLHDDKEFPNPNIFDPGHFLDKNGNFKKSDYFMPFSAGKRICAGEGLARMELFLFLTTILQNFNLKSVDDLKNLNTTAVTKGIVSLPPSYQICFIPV

CYP3A4 = CYP3A4 (Homo sapiens, UniProt P08684)
Sequence of CYP3A4 (P08684 whole entry): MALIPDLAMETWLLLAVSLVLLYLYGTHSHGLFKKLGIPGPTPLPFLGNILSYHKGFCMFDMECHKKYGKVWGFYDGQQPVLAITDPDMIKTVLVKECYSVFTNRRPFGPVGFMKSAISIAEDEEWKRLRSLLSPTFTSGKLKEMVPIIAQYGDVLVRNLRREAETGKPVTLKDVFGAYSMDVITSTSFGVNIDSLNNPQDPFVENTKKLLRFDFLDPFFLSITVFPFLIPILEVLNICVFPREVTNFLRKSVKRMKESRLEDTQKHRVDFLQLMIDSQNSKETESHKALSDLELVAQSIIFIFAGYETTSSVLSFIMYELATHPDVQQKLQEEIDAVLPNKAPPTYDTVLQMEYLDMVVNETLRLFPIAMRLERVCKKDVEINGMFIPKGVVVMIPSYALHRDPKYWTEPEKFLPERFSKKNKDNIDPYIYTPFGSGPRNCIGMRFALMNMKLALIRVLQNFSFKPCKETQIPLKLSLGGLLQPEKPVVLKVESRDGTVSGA

CYP11B1 = target: T4, CYP11B1 (Homo sapiens, UniProt P15538)
T4 sequence (P15538 25-503): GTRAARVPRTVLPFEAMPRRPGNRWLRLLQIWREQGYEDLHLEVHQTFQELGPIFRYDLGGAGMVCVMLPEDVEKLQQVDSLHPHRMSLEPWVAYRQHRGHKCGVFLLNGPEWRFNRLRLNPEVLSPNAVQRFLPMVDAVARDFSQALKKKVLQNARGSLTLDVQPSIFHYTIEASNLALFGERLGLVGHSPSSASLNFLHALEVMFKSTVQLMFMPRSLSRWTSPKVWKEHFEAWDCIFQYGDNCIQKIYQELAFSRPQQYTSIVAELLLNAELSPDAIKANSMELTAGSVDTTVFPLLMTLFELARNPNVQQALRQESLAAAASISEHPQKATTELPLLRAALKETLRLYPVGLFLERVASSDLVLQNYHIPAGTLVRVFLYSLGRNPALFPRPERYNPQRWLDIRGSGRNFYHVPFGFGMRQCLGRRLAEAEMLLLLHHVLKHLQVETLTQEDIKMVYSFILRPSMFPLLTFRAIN

CYP19 = target: T5, CYP19 (Homo sapiens, UniProt P11511)
T5 sequence (P11511 1-503): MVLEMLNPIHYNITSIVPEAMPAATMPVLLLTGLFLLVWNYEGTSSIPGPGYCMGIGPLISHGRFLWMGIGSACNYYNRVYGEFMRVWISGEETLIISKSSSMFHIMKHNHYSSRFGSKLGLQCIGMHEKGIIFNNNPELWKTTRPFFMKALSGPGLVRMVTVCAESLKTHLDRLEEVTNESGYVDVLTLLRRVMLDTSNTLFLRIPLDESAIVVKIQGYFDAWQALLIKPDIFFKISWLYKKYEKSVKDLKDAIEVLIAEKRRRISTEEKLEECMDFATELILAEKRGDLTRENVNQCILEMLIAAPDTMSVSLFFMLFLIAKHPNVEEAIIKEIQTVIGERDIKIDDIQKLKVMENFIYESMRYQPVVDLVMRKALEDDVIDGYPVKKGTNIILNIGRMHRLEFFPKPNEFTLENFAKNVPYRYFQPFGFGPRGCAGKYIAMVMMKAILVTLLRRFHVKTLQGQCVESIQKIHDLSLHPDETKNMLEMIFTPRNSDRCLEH

CYP1A = tested on: CYP1A

O=c1c(O)c(-c2ccc(O)c(O)c2)oc2cc(O)cc(O)c12 [Quercetin, quercetin]
Inhibitor: role towards CYP1A1 (substrate / inhibitor / inducer) (CYP1A1) | role towards CYP1A2 (substrate / inhibitor / inducer) (CYP1A2) | role towards CYP2C8 (substrate / inhibitor / inducer) (CYP2C8) | role towards CYP3A4 (substrate / inhibitor / inducer) (CYP3A4) | role towards CYP11B1 (substrate / inhibitor / inducer) (CYP11B1) | role towards CYP19 (substrate / inhibitor / inducer) (CYP19)

COc1ccc(-c2cc(=O)c3c(O)cc(O)cc3o2)cc1 [Acacetin, acacetin]
Inhibitor: role towards CYP1A (substrate / inhibitor / inducer) (CYP1A)
